Test system: cultured nerve cells
Experiment: Action of protecting cultured nerve cells from glutamic acid toxicity (LDH leakage)
Format: cell-based, Wistar rat
Conditions: rat fetal cerebral cortex cells, 10 mM glutamic acid, 24 hours, read-out: ED50 (the source's name)
Description: It is known that when the blood flow to the brain is temporarily clogged due to cerebral ischemia, hypoxia, or an trauma, delayed cerebral neuronal death is induced [Document: Brain Research, Vol. 239, 57 (1982)]. A possible cause of such damage of the cerebral nerve cells is excitatory toxicity due to an excitatory neutotransmitter such as glutamic acid or the like, which is excessively released with ischemia [Document: Trends in Neuroscience, vol. 10, 299 (1987)]. […] This is a problem to be solved by the invention. This action was evaluated by using the in vitro evaluation system which will be described below.
A fetus was taken from the abdomen of a Wistar female rat on the 18 to 19th day of pregnancy under aseptic conditions, and the head of the fetus was opened to extract the brain. The brain was placed in an ice-cooled L-15 medium, and the cerebral cortex was separated under a microscope. The cerebral cortexes of about 30 rats were cut into pieces, and then suspended in 10 ml of a 0.25% trypsin solution and 0.2 ml of a 0.01% DNase solution, followed by culture at 37° C. for 30 minutes. Then, 2 ml of serum was added to the solution, and immediately the resultant mixture was centrifuged at 120 rpm for 2 minutes to separate the precipitates. To the precipitates was added 7 ml of a DF medium (a medium obtained by adding 20 nM of transferrin, 5 μg/ml of insulin, 20 nM of progesterone,60 nM of selenite, 50 U/ml of penicillin, and 50 U/ml of streptomycin to a mixture equivalent amounts of Dulbecco modified Eagle medium and F-12 medium), followed by 20 pipetting operations using a 10-ml plastic pipette to obtain a cell suspension. The cell suspension was filtered with nylon mesh (pore diameter 43 μm) to fractionate isolated cells. The thus-obtained isolated cells were diluted with a DF medium to a concentration of 6.0×10^5 cells/ml, and 500 μl of the diluted cells was inoculated in each of the 48 wells of a 48-well culture plate precoated with polylysine, followed by culture at 37° C. for 1 day in the presence of 5% of CO2. On the 2nd day, the medium was changed to a new DF medium, and 10 μl of a solution of 0.5M glutamic acid in distilled water was added to each of the wells (the final glutamic acid concentration was 10 mM), followed by further culture at 37° C. for 24 hours in the presence 5% of CO2. A test compound was dissolved in distilled water, 10% or 100% DMSO or 10% methanol, and 5 μl of the solution was added to each of the wells immediately before glutamic acid was added. As an index of nerve cell damage, the enzyme activity of lactic acid dehydrogenase (LDH) leaking from the damaged cells into the medium was measured. For each of the test compounds, the LDH leakage was measured at each of concentrations to determine a dose-response curve by the modified Cochran-Armitige method. The 50% effective dose (ED50) of each of the test compounds we determined from the curve.

Cn1c2c(c3cc4c5c(cccc5c31)CC4)C[C@@]1(O)[C@H]3Cc4ccc(O)c5c4[C@@]1(CCN3CC1CC1)[C@H]2O5 [Compound 84, 17-cyclopropylmethyl-3,14β-dihydroxy-6,7-dehydro-4,5α-epoxy-6,7,2',3'-(1'-methyl-5',6"-ethano-6',7'-benzoindolo)morphinan]
EC50: 39 nM

Oc1ccc2c3c1O[C@H]1c4c(c5ccccc5n4-c4ccccc4)C[C@@]4(O)[C@@H](C2)N(CC2CC2)CC[C@]314 [Compound 4, 17-cyclopropylmethyl-3,14β-dihydroxy-6,7-dehydro-4,5α-epoxy-6,7,2',3'-(1'-phenylindolo)morphinan]
EC50: 80 nM

Oc1ccc2c3c1O[C@H]1c4[nH]c5c(cc(-c6ccccc6)c6ccccc65)c4C[C@@]4(O)[C@@H](C2)N(CC2CC2)CC[C@]314 [Compound 15, 17-cyclopropylmethyl-3,14β-dihydroxy-6,7-dehydro-4,5α-epoxy-6,7,2',3'-(5'-phenyl-6',7'-benzoindolo)morphinan]
EC50: 150 nM

Cc1cc2c3c([nH]c2c2ccccc12)[C@@H]1Oc2c(O)ccc4c2[C@@]12CCN(CC1CC1)[C@H](C4)[C@]2(O)C3 [Compound 13, 17-cyclopropylmethyl-3,14β-dihydroxy-6,7-dehydro-4,5α-epoxy-6,7,2',3'-(5'-methyl-6',7'-benzoindolo)morphinan]
EC50: 93 nM

Oc1ccc2c3c1O[C@H]1c4[nH]c5c6c(ccc5c4C[C@@]4(O)[C@@H](C2)N(CC2CC2)CC[C@]314)Cc1ccccc1-6 [Compound 22, 17-cyclopropylmethyl-3,14β-dihydroxy-6,7-dehydro-4,5α-epoxy-6,7,2',3'-(6',7',2",3"-indenoindolo)morphinan]
EC50: 50 nM

O=C(/C=C/c1cccc(C(F)(F)F)c1)NCCCn1c2c(c3ccc4ccccc4c31)C[C@@]1(O)[C@H]3Cc4ccc(O)c5c4[C@@]1(CCN3CC1CC1)[C@H]2O5 [Compound 65, 17-cyclopropylmethyl-3,14β-dihydroxy-6,7-dehydro-4,5α-epoxy-6,7,2',3'-[1'-(3-(3-trifluoromethylcinnamamido)propyl)-6',7'-benzoindolo]morphinan]
EC50: 110 nM

Oc1ccc2c3c1O[C@H]1c4c(c5ccccc5n4Cc4ccccc4)C[C@@]4(O)[C@@H](C2)N(CC2CC2)CC[C@]314 [Compound 68, 17-cyclopropylmethyl-3,14β-dihydroxy-6,7-dehydro-4,5α-epoxy-6,7,2',3'-(1'-benzylindolo)morphinan]
EC50: 91 nM

Cc1ccc(Cn2c3c(c4ccc5ccccc5c42)C[C@@]2(O)[C@H]4Cc5ccc(O)c6c5[C@@]2(CCN4CC2CC2)[C@H]3O6)cc1 [Compound 71]
EC50: 19 nM

Oc1ccc2c3c1O[C@H]1c4c(c5cc6c7c(cccc7c5n4Cc4ccccc4)CC6)C[C@@]4(O)[C@@H](C2)N(CC2CC2)CC[C@]314 [Compound 83, 17-cyclopropylmethyl-3,14β-dihydroxy-6,7-dehydro-4,5α-epoxy-6,7,2',3'-(1'-benzyl-5',6"-ethano-6',7'-benzoindolo)morphinan]
EC50: 73 nM

Oc1ccc2c3c1O[C@H]1c4c(c5ccccc5n4CCCN=C=S)C[C@@]4(O)[C@@H](C2)N(CC2CC2)CC[C@]314 [Compound 59, 17-cyclopropylmethyl-3,14β-dihydroxy-6,7-dehydro-4,5α-epoxy-6,7,2',3'-[1'-(3-isothiocyanatopropyl)indolo]morphinan]
EC50: 110 nM

CCCCCCCc1ccc2c3c([nH]c2c1)[C@@H]1Oc2c(O)ccc4c2[C@@]12CCN(CC1CC1)[C@H](C4)[C@]2(O)C3 [Compound 7, 17-cyclopropylmethyl-3,14β-dihydroxy-6,7-dehydro-4,5α-epoxy-6,7,2',3'-(6'-heptylindolo)morphinan]
EC50: 200 nM

Oc1ccc2c3c1O[C@H]1c4c(c5ccc6ccccc6c5n4CCCN=C=S)C[C@@]4(O)[C@@H](C2)N(CC2CC2)CC[C@]314 [Compound 60, 17-cyclopropylmethyl-3,14β-dihydroxy-6,7-dehydro-4,5α-epoxy-6,7,2',3'-[1'-(3-isothiocyanatopropyl)-6',7'-benzoindolo)morphinan]
EC50: 93 nM

— patent publication US6156762A, “Indolomorphinan derivative and agent for curing and preventing cerebral disorder” (Toray Industries, Inc., priority 1997, dated 2000)
